Ratio, tissue uptake and Drug uptake data for five compounds are collected here from ChEMBL document CHEMBL1156327, “Synthesis and biological evaluation of anti-1-amino-2-[18F]fluoro-cyclobutyl-1-carboxylic acid (anti-2-[18F]FACBC) in rat 9L gliosarcoma” (Bioorg Med Chem Lett, 2010).

The nature of data set [1]: Ratio of drug level in Fisher 344 rat brain to rat 9L tumor cells implanted in Fisher 344 rat after 30 mins. The note with it: 0.5 h. Type of data set: ADME, cell-based.
Data set [2] is described as follows: Ratio of drug level in Fisher 344 rat brain to rat 9L tumor cells implanted in Fisher 344 rat after 15 mins. It is filed as ADME, cell-based. The note with it: 0.25 h.
Data set [3] is described as follows: Drug uptake in rat 9L tumor implanted in Fischer 344 rat after 30 mins relative to control. It is filed as ADME, Neoplasm. The note with it: read-out: Drug uptake.
Data set [4] can be described thus: Drug uptake in rat 9L tumor implanted in Fischer 344 rat after 120 mins relative to control. Type of data set: ADME, Neoplasm. The settings on record: read-out: Drug uptake.
Data set [5] can be described thus: Ratio of drug level in Fisher 344 rat brain to rat 9L tumor cells implanted in Fisher 344 rat after 120 mins. Type of data set: ADME, cell-based. The note with it: 2 h.
The nature of data set [6]: Drug uptake in rat 9L tumor implanted in Fischer 344 rat after 60 mins relative to control. It is filed as ADME, Neoplasm. The settings on record: read-out: Drug uptake.
The nature of data set [7]: Drug uptake in rat 9L tumor implanted in Fischer 344 rat after 15 mins relative to control. It is filed as ADME, Neoplasm. The note with it: read-out: Drug uptake.
Data set [8] can be described thus: Ratio of drug level in Fisher 344 rat brain to rat 9L tumor cells implanted in Fisher 344 rat after 60 mins. Type of data set: ADME, cell-based. The settings on record: 1 h.
The next data set relates to 9L. Nature of the data set: Cellular uptake in rat 9L cells after 30 mins measured per 0.5 million cells. It is filed as ADME, cell-based. The settings on record: 0.5 h.
Data set [9] can be described thus: Drug uptake in rat 9L cells xenografted Fisher 344 rat brain measured per gram of tissue. The settings on record: Fischer 344, rat, read-out: Drug uptake. Type of data set: ADME, cell-based.

Turning to `N[C@]1(C(=O)O)C[C@@H]([18F])C1` [FLUCICLOVINE F18], in data set [1], the Ratio came out at 6.6.
The same measure, in the same setting: for `N[C@]1(C(=O)O)C[C@@H](C[18F])C1` the value was 8.9; for `N[C@]1(C(=O)O)C[C@H]([18F])C1`, 7.6.
In the case of `N[C@]1(C(=O)O)C[C@H](C[18F])C1`, the Ratio in [1] worked out at 6.9.
Regarding `N[C@@]1(C(=O)O)CC[C@@H]1[18F]`, the Ratio in [2] is recorded as 12; in [5], 26; in data set [1], 17; in [8], 14. The tissue uptake at 0.5 h in [3] is 0.66 %ID/g. In [4], the tissue uptake at 2 h is 0.6 %ID/g. In [6], the tissue uptake at 1 h amounted to 0.65 %ID/g. Besides, the tissue uptake at 0.25 h in data set [7] came out at 0.51 %ID/g. This compound showed a Drug uptake in the data set on 9L of 3.3%. Also, the tissue uptake in data set [9] worked out at 0.04 %ID/g.
